According to patent US11760775B2, “Steroids and protein-conjugates thereof” (Regeneron Pharmaceuticals, Inc., priority 2016, dated 2023):
Where “and” joins values, the source holds several entries; their conditions need not be identical. Equal values may be shown once. Where a name gives a salt, the structure may show the parent alone. Read-outs that look alike come from different tables or passages of the source.

How the values were obtained:
[1] = system: human monocyte derived-DC; assay: Ex vivo LPS-induced cytokine production in human monocyte derived DCs; type: cell-based; design: IL-6 / IL-8 / TNF-a / IL-12p70 / IL-1b: unit not given here
Description: The complete-RPMI with IL4 and GM-CSF was changed every three days. […]
(§1) Supernatants were collected into 96-well round bottom tissue culture plates 24 hours post-LPS challenge and stored at −20° C. until further analysis. Cytokine concentrations in the supernatants were measured using a Pro-inflammatory Panel 1 (mouse) multiplex immunoassay kit (MesoScale Discovery, Cat #K15048D) according to manufacturer's instructions or Pro-inflammatory Panel 1 (human) multiplex immunoassay kit (MesoScale Discovery, Cat #K15049D). In brief, 50 μL/well of calibrators and samples (diluted in Diluent 1:2) were added to the plates pre-coated with capture antibodies and incubated at room temperature while shaking at 700 rpm for 2 hours. The plates were then washed 3 times with 1×PBS containing 0.05% (w/v) Tween-20, followed by the addition of 25 μL of Detection Antibody Solution diluted in Diluent 45. After 2-hour incubation at room temperature while shaking, the plates were washed 3 times, and 150 μL of 2× Read Buffer was added to each well. Electrochemiluminescence was immediately read on a MSD Spector® instrument. Data analysis was performed using GraphPad Prism™ software. Statistical significance within the groups was determined by one-way Anova with Turkey's multiple comparison post-test and standard error of mean (SEM±) calculated.

[2] = system: LPS-induced cytokine release (TNF-α); assay: Mouse model of LPS induced cytokine release (TNF-α in plasma); type: in vivo, C57BL/6j mice
[3] = Pharmacokinetics of 4b and 6-I in mice (blood concentration-time); type: in vivo, C57BL/6j mice; conditions: in vivo
CD11c+ splenic DCs = assay: Ex vivo LPS-induced cytokine production in mouse splenic CD11c+ dendritic cells; type: cell-based, C57Bl/6 mice; design: TNF-a / IL-12p70 / IL-1b / IL-6 / KC-GRO: unit not given here
Description: as §1

[4] = system: GR activation in 293/PRLR/GRE-Luc cells (HEK293/9xUAS-Luc2P/pBind-GR/PRLR-HA high cells); assay: GR co-activator luciferase reporter cell based assay in 293/PRLR/GRE-Luc cells; design: species or system human; conditions: for EC50: Homo sapiens
In short: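 EC50 was derived from a 10-point, four-parameter logistic fit of One-Glo luminescence. The reporter is driven by Gal4UAS through GR ligand-binding domain fused to Gal4 DBD in PRLR-expressing 293 cells, after ADC internalization or free steroid exposure. Activation below 10% of the free-payload maximum counts as minimal.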

[5] = system: GR activation in 293/GRE-Luc cells (293_PBind GR/UAS-Luc); assay: Luciferase reporter assay in antigen negative 293/GRE-Luc cells; type: cell-based, human; conditions: Homo sapiens, 72 h, read-out: EC50 in 293/GRE-Luc (M)
[6] = male, C57BL/6, mouse, ip, 1 mg/kg

In the case of `CCCC1O[C@@H]2C[C@H]3[C@@H]4C[C@H](F)C5=CC(=O)C=C[C@]5(C)[C@@]4(F)[C@@H](O)C[C@]3(C)[C@]2(C(=O)CN)O1` (stereo partly drawn) [Compound 4b, (1S,2S,4R,6R,8S,9S,11S,12R,13S,19S)-8-(2-Aminoacetyl)-12,19-difluoro-11-hydroxy-9,13-dimethyl-6-propyl-5,7-dioxapentacyclo[10.8.0.0^2,90.0^4,80.0^13,18]icosa-14,17-dien-16-one; trifluoroacetic Acid Salt], the Pro-inflammatory cytokine production ([1]; Condition 1: entire 7-day conditioning period) is reported as “significantly reduced pro-inflammatory cytokine production”, the IL-1b ([1]; Condition 1, 10 nM + LPS) is reported as 1.18 ± 0.11 and the IL-6 ([1]; Condition 1, 10 nM + LPS) is reported as 325.46 ± 2.12. It also gave an IL-8 ([1]; Condition 1, 10 nM + LPS) of 8670.27 ± 268.97, an IL-12p70 ([1]; Condition 1, 10 nM + LPS) of 1.05 ± 0.08 and a TNF-a ([1]; Condition 1, 10 nM + LPS) of 117.75 ± 6.63. For the same compound, the IL-1b ([1]; Condition 1, 10 nM, no LPS) was 0.61 ± 0.007, the IL-6 ([1]; Condition 1, 10 nM, no LPS) was 2.23 ± 0.002 and the IL-8 ([1]; Condition 1, 10 nM, no LPS) was 166.99 ± 2.01. It also gave an IL-12p70 ([1]; Condition 1, 10 nM, no LPS) of 0.58 ± 0.002, a TNF-a ([1]; Condition 1, 10 nM, no LPS) of 1.28 ± 0.087 and an IL-1b ([1]; Condition 1, 100 nM + LPS) of 1.01 ± 0.07. The IL-6 ([1]; Condition 1, 100 nM + LPS) was 159.32 ± 7.31, the IL-8 ([1]; Condition 1, 100 nM + LPS) was 8461.59 ± 522.77 and the IL-12p70 ([1]; Condition 1, 100 nM + LPS) was 0.50 ± 0.19. It also gave a TNF-a ([1]; Condition 1, 100 nM + LPS) of 123.31 ± 0.11, an IL-1b ([1]; Condition 1, 100 nM, no LPS) of 0.641 ± 0.15 and an IL-6 ([1]; Condition 1, 100 nM, no LPS) of 3.45 ± 0.13. For the same compound, the IL-8 ([1]; Condition 1, 100 nM, no LPS) was 136.50 ± 0.87, the IL-12p70 ([1]; Condition 1, 100 nM, no LPS) was 0.66 ± 0.03 and the TNF-a ([1]; Condition 1, 100 nM, no LPS) was 1.46 ± 0.10. For the same compound, the “Production of IL12p70, IL6 and TNF-α” value ([1]; Condition 2: conditioning of mature monocyte-derived DCs) was “significantly decreased the production of IL12p70, IL6 and TNF-α”, the IL-1b ([1]; Condition 2, 10 nM + LPS) was 30.10 ± 0.93 and the IL-6 ([1]; Condition 2, 10 nM + LPS) was 5124.75 ± 114.8. For the same compound, the IL-8 ([1]; Condition 2, 10 nM + LPS) was 3003.52 ± 212.16, the IL-12p70 ([1]; Condition 2, 10 nM + LPS) was 4.81 ± 0.63 and the TNF-a ([1]; Condition 2, 10 nM + LPS) was 874.18 ± 30.46. For the same compound, the IL-1b ([1]; Condition 2, 10 nM, no LPS) was 0.59 ± 0.005, the IL-6 ([1]; Condition 2, 10 nM, no LPS) was 12.87 ± 0.312 and the IL-8 ([1]; Condition 2, 10 nM, no LPS) was 274.75 ± 1.75. The IL-12p70 ([1]; Condition 2, 10 nM, no LPS) was 0.60 ± 0.01, the TNF-a ([1]; Condition 2, 10 nM, no LPS) was 2.03 ± 0.14 and the IL-1b ([1]; Condition 2, 100 nM + LPS) was 18.20 ± 1.04. The IL-6 ([1]; Condition 2, 100 nM + LPS) was 4680.03 ± 104.90, the IL-8 ([1]; Condition 2, 100 nM + LPS) was 2735.36 ± 87.88 and the IL-12p70 ([1]; Condition 2, 100 nM + LPS) was 2.03 ± 0.16. It also gave a TNF-a ([1]; Condition 2, 100 nM + LPS) of 696.26 ± 75.10, an IL-1b ([1]; Condition 2, 100 nM, no LPS) of 0.59 ± 0.03 and an IL-6 ([1]; Condition 2, 100 nM, no LPS) of 11.25 ± 0.82. The IL-8 ([1]; Condition 2, 100 nM, no LPS) was 317.46 ± 14.83, the IL-12p70 ([1]; Condition 2, 100 nM, no LPS) was 0.61 ± 0.02 and the TNF-a ([1]; Condition 2, 100 nM, no LPS) was 1.37 ± 0.251. For the same compound, the “Inhibition of TNF-α production” value ([2]; 5 mpk ip before LPS challenge, plasma at 2 hr time point) was “significantly inhibited TNF-α production”, the “TNF-a” value ([2]; plasma 2 hr post LPS challenge, 5MPK ip (−2 h) prior to LPS, individual mice, trifluoroacetic Acid Salt) was 56.5 pg/mL and 10.4 pg/mL and 274.8 pg/mL and the AUC(0-inf) [3, 6] was 89.2 ng·h/mL. The AUC(0-t) [3, 6] was 84.6 ng·h/mL, the Cmax [3, 6] was 39.4 ng/mL and the half-life ([3]; mouse, IP, 1 mg/Kg in male C57BL/6 mice, Mean, read-out: Terminal t1/2 (converted)) was 101 min. It also gave an IL-1b (CD11c+ splenic DCs; 10 nM + LPS) of 6.32 ± 0.83, an IL-6 (CD11c+ splenic DCs; 10 nM + LPS) of 184.54 ± 21.59 and an IL-12p70 (CD11c+ splenic DCs; 10 nM + LPS) of 3.84 ± 2.88. For the same compound, the KC-GRO (CD11c+ splenic DCs; 10 nM + LPS) was 186.57 ± 15.71, the TNF-a (CD11c+ splenic DCs; 10 nM + LPS) was 146.46 ± 18.66 and the “LPS-induced cytokine responses in CD11c+ DCs” value (CD11c+ splenic DCs; 10 nM and 100 nM for 24 hours before LPS 10 ng/mL) was “significantly decreased LPS-induced cytokine responses”. It also gave an IL-1b (CD11c+ splenic DCs; 10 nM, no LPS) of 5.22 ± 0.11, an IL-6 (CD11c+ splenic DCs; 10 nM, no LPS) of 47.90 ± 4.55 and an IL-12p70 (CD11c+ splenic DCs; 10 nM, no LPS) of 5.24 ± 1.12. It also gave a KC-GRO (CD11c+ splenic DCs; 10 nM, no LPS) of 62.85 ± 6.51, a TNF-a (CD11c+ splenic DCs; 10 nM, no LPS) of 0 ± 0 and an IL-1b (CD11c+ splenic DCs; 100 nM + LPS) of 4.80 ± 0.99. The IL-6 (CD11c+ splenic DCs; 100 nM + LPS) was 201.10 ± 20.96, the IL-12p70 (CD11c+ splenic DCs; 100 nM + LPS) was 8.21 ± 2.79 and the KC-GRO (CD11c+ splenic DCs; 100 nM + LPS) was 211.96 ± 25.23. The TNF-a (CD11c+ splenic DCs; 100 nM + LPS) was 193.29 ± 25.56, the IL-1b (CD11c+ splenic DCs; 100 nM, no LPS) was 5.65 ± 0.18 and the IL-6 (CD11c+ splenic DCs; 100 nM, no LPS) was 63.87 ± 4.78. For the same compound, the IL-12p70 (CD11c+ splenic DCs; 100 nM, no LPS) was 6.43 ± 0.67, the KC-GRO (CD11c+ splenic DCs; 100 nM, no LPS) was 84.30 ± 6.06 and the TNF-a (CD11c+ splenic DCs; 100 nM, no LPS) was 0 ± 0. For the same compound, the “EC50 of GRE-Luc activation” value ([4]; 293/PRLR/GRE-Luc cells, 72 hours) was “better IC50 value than Budesonide and Dexamethasone”, the EC50 ([4]; HEK293, read-out: EC50 in 293/PRLR/GRE-Luc (M), 72 hrs of incubation) was under 5e-09 M and the EC50 ([4]; HEK293, read-out: HEK293/9xUAS-Luc2P/pBind-GR/PRLR-HA high cells EC50) was under 1e-08 M. For the same compound, the “HEK293/9xUAS-Luc2P/pBind-GR/PRLR-HA high cells activation relative to Budesonide” value ([4]; fold activation vs Budesonide) was “Full” and the EC50 [5] was under 5e-09 M.
